Data: ChEMBL document CHEMBL1124311, “Synthesis and antiallergy activity of 4-(diarylhydroxymethyl)-1-[3-(aryloxy)propyl]piperidines and structurally related compounds” (J Med Chem, 1989)

Legend:
Type in all cases: functional, organism-based
Rattus norvegicus [1] = test: Oral antiallergy activity in the passive foot anaphylaxis (PFA) model of rat, at a dose of 10 (mg/kg); Activity between positive and negative control groups
Rattus norvegicus [2] = test: Oral antiallergy activity in the passive foot anaphylaxis (PFA) model of rat, at a dose of 3.16 (mg/kg); not significantly different from negative control group
Rattus norvegicus [3] = test: Oral antiallergy activity in the passive foot anaphylaxis (PFA) model of rat, at a dose of 10 (mg/kg); not significantly different from negative control group
Rattus norvegicus [4] = test: Oral antiallergy activity in the passive foot anaphylaxis (PFA) model of rat, at a dose of 3.16 (mg/kg); Activity between positive and negative control groups
Rattus norvegicus [5] = test: Oral antiallergy activity in the passive foot anaphylaxis (PFA) model of rat, at a dose of 10 (mg/kg); Activity equal to positive control group

| Compound | PFA (Rattus norvegicus [1]) | PFA (Rattus norvegicus [3]) | also measured |
| --- | --- | --- | --- |
| COc1cccc(OCCCN2CCC(C(O)(c3ccc(F)cc3)c3ccc(F)cc3)CC2)c1 | Activity between positive and negative control groups | – | PFA (Rattus norvegicus [2]): Activity between positive and negative control groups |
| COc1cc(C(C)=O)ccc1OCCCN1CCCC(C(O)(c2ccc(F)cc2)c2ccc(F)cc2)C1 (configuration not stated) | – | Not significantly different from negative control group | – |
| C[S+]([O-])c1ccc(OCCCN2CCC(C(O)(c3ccc(F)cc3)c3ccc(F)cc3)CC2)cc1 (configuration not stated) | Activity between positive and negative control groups | – | PFA (Rattus norvegicus [2]): Activity between positive and negative control groups |
| OC(c1ccc(F)cc1)(c1ccc(F)cc1)C1CCN(CCCOc2ccc(Cl)cc2)CC1 | – | Not significantly different from negative control group | – |
| COc1cc(C(C)=O)ccc1OCCCN1CCN(C(=O)c2ccccc2)CC1 | – | Not significantly different from negative control group | – |
| CCOC(=O)C(=O)Nc1ccc(OCCCN2CCC(C(O)(c3ccc(F)cc3)c3ccc(F)cc3)CC2)cc1 | – | Not significantly different from negative control group | – |
| OC(CCCN1CCC(C(O)(c2ccc(F)cc2)c2ccc(F)cc2)CC1)c1ccccc1 (configuration not stated) | Activity between positive and negative control groups | – | PFA (Rattus norvegicus [4]): Activity between positive and negative control groups |
| CC(=O)c1cccc(OCCCN2CCC(C(O)(c3ccc(F)cc3)c3ccc(F)cc3)CC2)c1 | Activity between positive and negative control groups | – | PFA (Rattus norvegicus [2]): Activity between positive and negative control groups |
| COc1ccc(C(O)(c2ccc(OC)cc2)C2CCN(CCCOc3ccc(C(C)=O)cc3OC)CC2)cc1 | – | Not significantly different from negative control group | – |
| COc1cc(C(C)=O)ccc1OCCCN1CCN(Cc2ccccc2)CC1 | – | Not significantly different from negative control group | – |
| NS(=O)(=O)c1ccc(OCCCN2CCC(C(O)(c3ccc(F)cc3)c3ccc(F)cc3)CC2)cc1 | Activity between positive and negative control groups | – | PFA (Rattus norvegicus [2]): Activity between positive and negative control groups |
| COc1cc(C(C)=O)ccc1OCCCN1CCC(C(O)(c2ccc(Cl)cc2)c2ccc(Cl)cc2)CC1 | – | Not significantly different from negative control group | – |
| COc1cc(C(C)=O)ccc1OCCCN1CCN(c2ccccc2)CC1 | – | – | PFA (Rattus norvegicus [5]): Activity equal to positive control group |
| CCOC(=O)c1cccc(OCCCN2CCC(C(O)(c3ccc(F)cc3)c3ccc(F)cc3)CC2)c1 | Activity between positive and negative control groups | – | PFA (Rattus norvegicus [2]): Activity between positive and negative control groups |
| CC(C)(C)c1ccc(OCCCN2CCC(C(O)(c3ccc(F)cc3)c3ccc(F)cc3)CC2)cc1 | – | Not significantly different from negative control group | – |
| COc1cc(C(C)=O)ccc1OCCCN1CCC(Cc2ccccc2)CC1 | – | Not significantly different from negative control group | – |
| O=S(=O)(CCCN1CCC(C(O)(c2ccc(F)cc2)c2ccc(F)cc2)CC1)c1ccccc1 | – | Not significantly different from negative control group | – |
| COc1cc(C(C)=O)ccc1OCCCN1CCC(C(C#N)(c2ccccc2)c2ccccc2)CC1 | – | Not significantly different from negative control group | – |
| COc1cc(C(C)=O)ccc1OCCCN1CCC(C(O)(c2ccccc2)c2cccc(C(F)(F)F)c2)CC1 (configuration not stated) | – | Not significantly different from negative control group | – |
| CC(C)c1ccc(OCCCN2CCC(C(O)(c3ccc(F)cc3)c3ccc(F)cc3)CC2)cc1 | Activity between positive and negative control groups | – | PFA (Rattus norvegicus [2]): Activity between positive and negative control groups |

| Compound | PFA (Rattus norvegicus [1]) | PFA (Rattus norvegicus [3]) | also measured |
| --- | --- | --- | --- |
| COc1cc(C(C)=O)ccc1OCCCN1CCC(C(O)(c2ccc(F)cc2)c2ccc(F)cc2)C1 (configuration not stated) | – | Not significantly different from negative control group | – |
| COc1cc(C(C)=O)ccc1OCCCCCN1CCC(C(O)(c2ccc(F)cc2)c2ccc(F)cc2)CC1 | Activity between positive and negative control groups | – | PFA (Rattus norvegicus [4]): Activity between positive and negative control groups |
| COc1cc(C(C)=O)ccc1OCCCN1CCC(c2ccccc2)CC1 | – | Not significantly different from negative control group | – |
| COc1cc(C(C)=O)ccc1OCCN1CCC(C(O)(c2ccc(F)cc2)c2ccc(F)cc2)CC1 | – | – | PFA (Rattus norvegicus [5]): Activity equal to positive control group |
| COc1cc(C(C)=O)ccc1OCCCN1CCC(C(OC)(c2ccccc2)c2ccccc2)CC1 | – | – | PFA (Rattus norvegicus [4]): Activity between positive and negative control groups |
| OC(c1ccc(F)cc1)(c1ccc(F)cc1)C1CCN(CCCOc2ccc(-c3ccccc3)cc2)CC1 | – | Not significantly different from negative control group | – |
| O=C(c1ccccc1)c1ccc(OCCCN2CCC(C(O)(c3ccc(F)cc3)c3ccc(F)cc3)CC2)cc1 | Activity between positive and negative control groups | – | PFA (Rattus norvegicus [2]): Activity between positive and negative control groups |
| CN(CCCN1CCC(C(O)(c2ccc(F)cc2)c2ccc(F)cc2)CC1)c1ccccc1 | Activity between positive and negative control groups | – | PFA (Rattus norvegicus [4]): Activity between positive and negative control groups |
| COC(=O)c1ccc(OCCCCN2CCC(C(O)(c3ccc(F)cc3)c3ccc(F)cc3)CC2)cc1 | Activity between positive and negative control groups | – | PFA (Rattus norvegicus [2]): Activity between positive and negative control groups |
| COc1cccc(OC)c1OCCCN1CCC(C(O)(c2ccc(F)cc2)c2ccc(F)cc2)CC1 | Activity between positive and negative control groups | – | PFA (Rattus norvegicus [2]): Activity between positive and negative control groups |
| COc1cc(C(C)=O)ccc1OCCCN1CCC(C(O)(Cc2ccc(F)cc2)c2ccc(F)cc2)CC1 (configuration not stated) | – | Not significantly different from negative control group | – |
| COc1cc(C(C)=O)ccc1OCCCN1CCCCC1 | – | Not significantly different from negative control group | – |
| OC(c1ccc(F)cc1)(c1ccc(F)cc1)C1CCN(CCCSc2ccccc2)CC1 | Activity between positive and negative control groups | – | – |
| COc1cc(C(C)=O)ccc1OCCCN1CCC(C(O)(c2cccc(F)c2)c2cccc(F)c2)CC1 | – | Not significantly different from negative control group | – |
| COC(=O)c1ccc(OCCCN2CCC(C(O)(c3ccccc3)c3ccccc3)CC2)cc1 | – | Not significantly different from negative control group | – |
| OC(c1ccc(F)cc1)(c1ccc(F)cc1)C1CCN(CCCNc2ccccc2)CC1 | Activity between positive and negative control groups | – | PFA (Rattus norvegicus [4]): Activity between positive and negative control groups |
| OC(c1ccc(F)cc1)(c1ccc(F)cc1)C1CCN(CCCC2OCOC2c2ccccc2)CC1 (configuration not stated) | Activity between positive and negative control groups | – | – |
| COc1cc(C(C)=O)ccc1OCCCN1CCC(CC(O)(c2ccc(F)cc2)c2ccc(F)cc2)CC1 | – | Not significantly different from negative control group | – |
| CC(=O)c1ccccc1OCCCN1CCC(C(O)(c2ccc(F)cc2)c2ccc(F)cc2)CC1 | Activity between positive and negative control groups | – | PFA (Rattus norvegicus [2]): Activity between positive and negative control groups |
| OC(c1ccccc1)(c1ccccc1)C1CCN(CCCOc2ccccc2)CC1 | – | – | PFA (Rattus norvegicus [5]): Activity equal to positive control group |

| Compound | PFA (Rattus norvegicus [1]) | PFA (Rattus norvegicus [3]) | also measured |
| --- | --- | --- | --- |
| COc1cc(C(C)=O)ccc1OCCCN1CCCC(CC(O)(c2ccc(F)cc2)c2ccc(F)cc2)C1 (configuration not stated) | – | Not significantly different from negative control group | – |
| COc1cc(C(C)=O)ccc1OCCCN1CCC(CC(O)(c2ccc(F)cc2)c2ccc(F)cc2)C1 (configuration not stated) | – | Not significantly different from negative control group | – |
| O=C(CCCN1CCC(C(O)(c2ccc(F)cc2)c2ccc(F)cc2)CC1)c1ccccc1 | – | Not significantly different from negative control group | – |
| COc1cc(C(C)=O)ccc1OCCCN1CCC(C(O)(c2ccc(F)c(F)c2)c2ccc(F)c(F)c2)CC1 | – | Not significantly different from negative control group | – |
| COc1cc(C(C)=O)ccc1OCCCN1CCC(C(O)(c2ccc(C)cc2)c2ccc(C)cc2)CC1 | – | Not significantly different from negative control group | – |
| COc1cc(OCCCN2CCC(C(O)(c3ccc(F)cc3)c3ccc(F)cc3)CC2)ccc1C(C)=O | Activity between positive and negative control groups | – | – |
| CCN(CCCOc1ccc(C(C)=O)cc1OC)CCCC(O)(c1ccc(F)cc1)c1ccc(F)cc1 | – | Not significantly different from negative control group | – |
| Cc1ccccc1OCCCN1CCC(C(O)(c2ccc(F)cc2)c2ccc(F)cc2)CC1 | Activity between positive and negative control groups | – | – |
| COc1cc(C(C)=O)ccc1OCCCN1CCC(C(O)(c2ccccc2)C2CCCCC2)CC1 (configuration not stated) | – | Not significantly different from negative control group | – |
| N#Cc1ccc(OCCCN2CCC(C(O)(c3ccc(F)cc3)c3ccc(F)cc3)CC2)cc1 | – | Not significantly different from negative control group | – |
| COc1cc(C(C)=O)ccc1OCCCCCCN1CCC(C(O)(c2ccc(F)cc2)c2ccc(F)cc2)CC1 | – | Not significantly different from negative control group | – |
| COc1cc(C(C)=O)ccc1OCCCN1CCN(C(c2ccccc2)c2ccccc2)CC1 | – | – | PFA (Rattus norvegicus [5]): Activity equal to positive control group |
| OC(c1ccc(F)cc1)(c1ccc(F)cc1)C1CCN(CCCOc2ccc(F)cc2)CC1 | – | Not significantly different from negative control group | – |
| COc1cc(C(C)=O)ccc1OCCCN1CCC(C(c2ccccc2)c2ccccc2)CC1 | – | – | PFA (Rattus norvegicus [5]): Activity equal to positive control group |
| COc1cc(C(C)=O)ccc1OCCCN1CCC(C(C(N)=O)(c2ccccc2)c2ccccc2)CC1 | – | Not significantly different from negative control group | – |
| OC(c1ccc(F)cc1)(c1ccc(F)cc1)C1CCN(CCCOc2ccccc2OCc2ccccc2)CC1 | Activity between positive and negative control groups | – | – |
| COc1cc(C(C)=O)ccc1OCCCN1CCC(C(=O)c2ccccc2)CC1 | – | – | PFA (Rattus norvegicus [5]): Activity equal to positive control group |
| COc1cc(C(C)=O)ccc1OCCCN1CCC(C(O)(c2ccc(F)cc2)c2ccccn2)CC1 (configuration not stated) | – | – | PFA (Rattus norvegicus [4]): Activity between positive and negative control groups |
